According to US7276501B2, “6-(4-substituted-anilino)pyrimidine derivatives, method for preparation thereof and antiviral pharmaceutical composition comprising the same” (B & C Biopharm, priority 2002, dated 2007):

Biological target: T1, HCV RNA polymerase (RNA dependent RNA polymerase, NS5B) (Hepatitis C virus genotype 1b, UniProt P26663)
T1 construct: the NS5B region (1773 bps) was amplified by PCR and cloned into pVLHIS, a baculovirus transfer vector; (His)6; made in house; host or cells: Sf9 insect cells (recombinant baculovirus, pVLHIS-NS5B)
T1 sequence (P26663 2420-3010): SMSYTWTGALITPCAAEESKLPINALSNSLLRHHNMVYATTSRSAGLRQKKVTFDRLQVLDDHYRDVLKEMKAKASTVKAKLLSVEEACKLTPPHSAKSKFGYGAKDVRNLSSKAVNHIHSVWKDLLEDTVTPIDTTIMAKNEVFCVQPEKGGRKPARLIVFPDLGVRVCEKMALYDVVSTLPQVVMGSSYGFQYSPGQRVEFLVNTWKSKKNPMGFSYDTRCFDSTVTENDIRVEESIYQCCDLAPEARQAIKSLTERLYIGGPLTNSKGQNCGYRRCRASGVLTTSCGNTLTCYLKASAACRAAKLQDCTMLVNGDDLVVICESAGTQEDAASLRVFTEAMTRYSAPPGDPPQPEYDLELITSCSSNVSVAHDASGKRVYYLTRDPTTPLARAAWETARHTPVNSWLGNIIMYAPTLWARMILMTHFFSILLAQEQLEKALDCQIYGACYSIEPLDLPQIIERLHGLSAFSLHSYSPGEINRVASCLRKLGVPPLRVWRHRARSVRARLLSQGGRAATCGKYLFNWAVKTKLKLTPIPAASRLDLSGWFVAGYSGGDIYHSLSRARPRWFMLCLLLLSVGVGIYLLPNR
Test: Inhibitory effect on activity of recombinant HCV RNA polymerase (NS5B) in vitro
Type: biochemical, HCV-1b type HCV
Description: Test of Inhibitory Effect on Activity of HCV RNA Polymerase (RNA Dependent RNA Polymerase, NS5B) in vitro
The following in vitro experiments were conducted to examine the inhibitory effect of the compounds according to the present invention on the activity of HCV RNA dependent RNA Polymerase.
HCV cDNA was obtained from the blood of HCV-1b type HCV patient and the NS5B region (1773 bps) was amplified by PCR and cloned into pVLHIS, a baculovirus transfer vector, to prepare a recombinant transfer vector. The prepared transfer vector and the wild-type AcNPV vector were cotransfected into Sf9 insect cell line to yield a recombinant baculovirus containing the histidine-tagged recombinant vector pVLHIS-NS5B. Sufficiently cultured insect cells were infected with the resulting recombinant baculovirus and cultured in Grace's medium containing 10% FBS for 3 to 4 days. The culture broth was centriftiged to obtain only the infected cells. The cells were washed three times with PBS and resuspended in binding buffer [50 mM Na-phosphate (pH 8.0), 30 mM NaCl, 10 mM imidazole, 1 mM DTT, 10% glycerol, 1% NP40], sonicated and the clearized lysate was obtained. Recombinant NS5B was purified by affinity column chromatography using a Ni-NTA His bind resin (Novagen) to produce pure NS5B protein. The (His)6-tagged NS5B was bound to Ni-NTA resin and washed the binding buffer containing 50 mM imidazole. The bound NS5B was eluted with the binding buffer containing imidazole in a step-gradient manner (100-300 mM). The NS5B protein fractions were dialyzed against buffer [50 mM Tris-HCl, 50 mM NaCl, 1 mM DTT, […], 10% glycerol], followed by at −70° C. in a small aliquot.
The 3′UTR cDNA (220 bp) of HCV was obtained from 1b HCV RNA of the blood of a hepatitis C patient by PCR and cloned into pcDNA3 vector. Linearized DNA fragment containing the 3′-UTR was prepared using the restriction enzyme Eco RI and used as a template for in vitro transcription using T7 RNA ploymerase to prepare RNA fragment containing 3′-UTR.
In vitro inhibitory activity of the compounds of the present invention on recombinant HCV RNA polymerase was measured as follows.
A streptavidin-coated well plate was prepared suitable for the sample to be examined. 25 μl of 2× assay buffer [50 mM Tris-Cl (pH 7.5), 100 mM NaCl, 10 mM MgCl2, 20 mM KCl, 1 mM EDTA, 1 mM DTT] and 10 μl of purified HCV RNA polymerase 200 ng and 3′-UTR template RNA were added to each well. Then, 5 μl of the sample to be examined was added to have final concentrations of 10, 1, 0.1 and 0.01 μg/mL. Finally, 10 μl of a reactant solution containing DIG-(digoxigenin)-UTP, biotin-UTP, ATP, CTP, GTP, and UTP as a nucleotide for the ploymerase reaction with the RNA template of HCV 3′-UTR RNA was added to each well. The reaction mixture was incubated at 22° C. for 60 minutes. By the action of HCV polymerase, newly generated RNAs including UTP conjugated with biotin and DIG were copied and these new RNAs could bind to streptavidin coated on the well by biotin-conjugated UTP. After completion of the reaction, the plate was washed three times with 200 μl of a washing buffer (pH 7.0, Roche Co.) to remove unreacted substances and impurities. Then, 100 μl of the secondary antibody anti-DIG-POD (peroxidase, Roche Co.) was added to each well and incubated at 37° C. for 1 hour. Again, the well plate was washed with the washing buffer. Finally, 100 μl of ABTS^R (Roche Co.) as a POD substrate was added to each well and reacted for 15 to 30 minutes. The optical density (OD) was measured using an ELISA reader (Bio-Tek instrument Co.) at 405 nm. The inhibitory effect on the activity of HCV polymerase was calculated by subtracting the OD of the positive control without the sample.

SMILES	Inhibition of activity of HCV RNA polymerase (%) (0.01 μg/mL)	Inhibition of activity of HCV RNA polymerase (%) (0.1 μg/mL)	Inhibition of activity of HCV RNA polymerase (%) (1 μg/mL)	Inhibition of activity of HCV RNA polymerase (%) (10 μg/mL)
CSc1nc(Nc2ccc(N3CCOCC3)cc2)cc(N2CCN(C(=O)OC(C)C)CC2)n1 [Example 1, 2-methylthio-6-[4-(4-morpholino)anilino]-4-[4-(isopropoxycarbonyl)piperazin-1-yl]pyrimidine]	29	55	81	99
CSc1nc(Nc2ccc(N3CCOCC3)cc2)cc(N2CCN(C(=O)c3cccnc3)CC2)n1 [Example 2, 2-methylthio-6-[4-(4-morpholino)anilino]-4-[4-[(3-pyridyl)carbonyl]piperazin-1-yl]pyrimidine]	15	30	62	98
CSc1nc(Nc2ccc(N3CCOCC3)cc2)cc(N2CCN(C(=O)c3ccncc3)CC2)n1 [Example 3, 2-methylthio-6-[4-(4-morpholino)anilino]-4-[4-[(4-pyridyl)carbonyl]piperazin-1-yl]pyrimidine]	23	53	73	93
CSc1nc(Nc2ccc(N3CCOCC3)cc2)cc(N2CCN(CC(=O)O)CC2)n1 [Example 4, 2-methylthio-6-[4-(4-morpholino)anilino]-4-[4-(carboxymethyl)piperazin-1-yl]pyrimidine]	27	52	65	94
